The source of these data is patent US20220363662A1, “COMPOUNDS AS LXR AGONISTS” (Integral Biosciences Privated Limited, priority 2021, published 2022).

SMILES strings stand for the structures.

This experiment concerns the target T1, LXR beta (Homo sapiens, UniProt P55055).
T1 construct: 5 μL of 4×LXR beta-LBD was added to each well (final concentration 5 nM); purchased Thermofisher PV4658
T1 sequence (P55055 222-460 limits assumed): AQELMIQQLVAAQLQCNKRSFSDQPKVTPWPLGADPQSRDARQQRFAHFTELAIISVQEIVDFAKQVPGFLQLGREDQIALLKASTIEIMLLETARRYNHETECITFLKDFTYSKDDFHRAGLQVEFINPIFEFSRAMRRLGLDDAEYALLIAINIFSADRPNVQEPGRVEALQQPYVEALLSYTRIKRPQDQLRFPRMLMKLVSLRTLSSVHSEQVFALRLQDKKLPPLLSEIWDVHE
In words: LXR beta agonist assay (Lanthascreen TR-FRET). It is filed as biochemical. The note with it: LXR beta-LBD 5 nM, read-out: LXR-β EC50. Here is the method:
EC50 values of compounds against LXR beta were determined at Integral BioSciences (India) using Lanthascreen TR-FRET (Thermofisher, Cat #PV4658). Assay was performed in a 20 μL final volume in a Black 384-well plate (Corning, Cat #4511). Dose response curve for the compounds were prepared in duplicates with starting concentration at 30 μM and a three-fold titration was performed. The reaction buffer consisted of TR-FRET Coregulator Buffer G. To the compound dilution, 5 μL of 4×LXR beta-LBD was added to each well (final concentration 5 nM). An equal volume (5 μL) containing 4×Fl-D22/Tb-anti GST antibody (final concentration 100 nM/10 nM) was added to initiate the enzyme reaction and the reaction was incubated for 60 min at 22° C. after which the plates were read using BioTek Plate reader for TR-FRET every hour up to 4 hours.
Analysis was done using the standard curve by non-linear regression, variable slope inhibitor curve fits (Graph-Pad Prism) and EC50's of compounds were determined wherever possible.
(TR-FRET usually uses a lanthanide donor and a delayed reading to cut background.)

For orientation: EC50 means the concentration that produces a half-maximal response. With `O=C(c1ccc(NC2CN(C3CCN(C(=O)C(O)(c4cccc(Cl)c4)C(F)(F)F)CC3)C2)cc1Cl)N1CC(F)(F)C1` (stereo not shown) [Compound 1.131, 1-(4-(3-((3-chloro-4-(3,3-difluoroazetidine-1-carbonyl)phenyl)amino)azetidin-1-yl)piperidin-1-yl)-2-(3-chlorophenyl)-3,3,3-trifluoro-2-hydroxypropan-1-one], the EC50 came to 1.79 µM.

With `CN(C)C(=O)c1ccc(NC2CN(C3CCN(C(=O)C4CCC(F)(F)CC4)CC3)C2)cc1Cl` [Compound 1.63, 2-chloro-4-(1-(1-(4,4-dfluorocyclohexanecarbonyl)piperidin-4-yl)azetidin-3-ylamino)-N,N-dimethylbenzamide], the EC50 was over 30 µM.

Consider `CN(CCCC(F)(F)F)C(=O)c1ccc(NC2CN(C3CCN(C(=O)[C@](O)(c4ccccc4)C(F)(F)F)CC3)C2)cc1Cl` [Compound 1.125, (R)-2-chloro-N-methyl-4-(1-(1-(3,3,3-trifluoro-2-hydroxy-2-phenylpropanoyl)piperidin-4-yl)azetidin-3-ylamino)-N-(4,4,4-trifluorobutyl)benzamide], for which the EC50 amounted to 3.98 µM.

As to `CN(C)C(=O)c1cc([N+](=O)[O-])c(NC2CN(C3CCN(C(=O)[C@](O)(c4ccccc4)C(F)(F)F)CC3)C2)cc1Cl` [Compound 1.129, (R)-2-chloro-N,N-dimethyl-5-nitro-4-(1-(1-(3,3,3-trifluoro-2-hydroxy-2-phenylpropanoyl)piperidin-4-yl)azetidin-3-ylamino)benzamide], the EC50 was determined as 3.47 µM.

Regarding `Cc1cccc([C@](O)(C(=O)N2CCC(N3CC(Nc4ccc(C(=O)N(C)C)c(Cl)c4)C3)CC2)C(F)(F)F)c1` (single isomer, unassigned) [Compound 1.121], the EC50 came out at 2.85 µM.

Regarding `CN(C)C(=O)c1ccc(NC2CN(C3CCN(C(=O)C45CC(C4)C5)CC3)C2)cc1Cl` [Compound 1.69, 4-(1-(1-(bicyclo[1.1.1]pentane-1-carbonyl)piperidin-4-yl)azetidin-3-ylamino)-2-chloro-N,N-dimethylbenzamide], the EC50 was 3.79 µM.

`O=C(c1ccc(NC2CN(C3CCN(C(=O)C(O)(c4ccccc4)C(F)(F)F)CC3)C2)cc1Cl)N1CC(F)(F)C1` (stereo not shown) [Compound 1.110, 1-(4-(3-(3-chloro-4-(3,3-difluoroazetidine-1-carbonyl)phenylamino)azetidin-1-yl)piperidin-1-yl)-3,3,3-trifluoro-2-hydroxy-2-phenylpropan-1-one]: the EC50 stood at 5.71 µM.

As to `N#Cc1ccccc1S(=O)(=O)N1CCC(C2CCN(c3cc(Cl)c4c(=O)[nH]ccc4c3)CC2)CC1` [Compound 1.15, 2-(1′-(8-chloro-1-oxo-1,2-dihydroisoquinolin-6-yl)-4,4′-bipiperidin-1-ylsulfonyl)benzonitrile], the EC50 amounted to 2.74 µM.

With `CN(C)C(=O)c1ccc(N(C)C2CN(C3CCN(C(=O)[C@](O)(c4ccccc4)C(F)(F)F)CC3)C2)cc1Cl` [Compound 1.32, (R)-2-chloro-N,N-dimethyl-4-(methyl(1-(1-(3,3,3-trifluoro-2-hydroxy-2-phenylpropanoyl)piperidin-4-yl)azetidin-3-yl)amino)benzamide], the EC50 was determined as 7.23 µM.

In the case of `CN(C)C(=O)c1ccc(NC2CN(C3CCN(C(=O)C4(c5ccc(Cl)cc5)CCC4)CC3)C2)cc1Cl` [Compound 1.33, 2-chloro-4-(1-(1-(1-(4-chlorophenyl)cyclobutanecarbonyl)piperidin-4-yl)azetidin-3-ylamino)-N,N-dimethylbenzamide], the EC50 was 4.3 µM.

On to `CC1CN(c2nnc(-c3ccc(C(=O)N(C)C)c(Cl)c3)s2)CCN1S(=O)(=O)c1ccccc1Cl` (stereo not shown) [Compound 1.83, 2-chloro-4-(5-(4-(2-chlorophenylsulfonyl)-3-methylpiperazin-1-yl)-1,3,4-thiadiazol-2-yl)-N,N-dimethylbenzamide], for which the EC50 is 8.46 µM.

Take `COc1ncc(Cl)cc1S(=O)(=O)N1CC=C(c2nnc(-c3ccc(C(=O)N(C)C)c(Cl)c3)s2)CC1` [Compound 1.62, 2-chloro-4-(5-(1-(5-chloro-2-methoxypyridin-3-ylsulfonyl)-1,2,3,6-tetrahydropyridin-4-yl)-1,3,4-thiadiazol-2-yl)-N,N-dimethylbenzamide]: the EC50 was over 10 µM.

Regarding `CN(C)C(=O)c1ccc(-c2nnc(C3=CCN(S(=O)(=O)c4cc(Cl)ccc4Cl)CC3)s2)cc1Cl` [Compound 1.61, 2-chloro-4-(5-(1-(2,5-dichlorophenylsulfonyl)-1,2,3,6-tetrahydropyridin-4-yl)-1,3,4-thiadiazol-2-yl)-N,N-dimethylbenzamide], the EC50 is over 10 µM.

Consider `CN(C)C(=O)c1ccc(NC2CN(C3CC4(C3)CN(C(=O)[C@](O)(c3ccccc3)C(F)(F)F)C4)C2)cc1Cl` [Compound 1.81, 2-chloro-N,N-dimethyl-4-(1-(2-((R)-3,3,3-trifluoro-2-hydroxy-2-phenylpropanoyl)-2-azaspiro[3.3]heptan-6-yl)azetidin-3-ylamino)benzamide], for which the EC50 is 4.22 µM.

For `CCN(CC)C(=O)c1ccc(NC2CN(C3CCN(C(=O)[C@](O)(c4ccccc4)C(F)(F)F)CC3)C2)cc1Cl` (single isomer, unassigned) [Compound 1.97], the EC50 was 1.17 µM.

With `CC(=O)N1CCN(C(=O)c2ccc(NC3CN(C4CCN(C(=O)C(O)(c5ccccc5)C(F)(F)F)CC4)C3)cc2Cl)CC1` (stereo not shown) [Compound 1.103, 1-(4-(3-((4-(4-acetylpiperazine-1-carbonyl)-3-chlorophenyl)amino)azetidin-1-yl)piperidin-1-yl)-3,3,3-trifluoro-2-hydroxy-2-phenylpropan-1-one], the EC50 was over 30 µM.

For the compound `CN(C)C(=O)c1ccc(-c2nnc(C3CCN(S(=O)(=O)c4ccccc4Cl)CC3)s2)cc1Cl` [Compound 1.11, 2-chloro-4-(5-(1-(2-chlorophenylsulfonyl)piperidin-4-yl)-1,3,4-thiadiazol-2-yl)-N,N-dimethylbenzamide], the EC50 is 3.09 µM.

As for `O=C(N1CCC(C2CCN(c3cc(Cl)c4c(=O)[nH]ccc4c3)CC2)CC1)C1(c2ccccc2)CCC1` [Compound 1.22, 8-chloro-6-(1′-(1-phenylcyclobutanecarbonyl)-[4,4′-bipiperidin]-1-yl)isoquinolin-1(2H)-one], the EC50 turned out to be 2.4 µM.

In the case of `CN(C)C(=O)c1ccc(-c2nnc(C3=CCN(C(=O)C(C)(C)C)CC3)s2)cc1Cl` [Compound 1.59, 2-chloro-N,N-dimethyl-4-(5-(1-pivaloyl-1,2,3,6-tetrahydropyridin-4-yl)-1,3,4-thiadiazol-2-yl)benzamide], the EC50 came out at 5.45 µM.

For the compound `CN(C)C(=O)c1ccc(C2CCN(C3CC4(C3)CN(C(=O)C(O)(c3ccccc3)C(F)(F)F)C4)CC2)cc1Cl` (stereo not shown) [Compound 1.80, 2-chloro-N,N-dimethyl-4-(1-(2-(3,3,3-trifluoro-2-hydroxy-2-phenylpropanoyl)-2-azaspiro[3.3]heptan-6-yl)piperidin-4-yl)benzamide], the EC50 amounted to 4.33 µM.

As to `CN(C)C(=O)c1ccc(NC2CN(C3CCN(C(=O)[C@](O)(c4ccccc4)C(F)(F)F)CC3)C2)cc1F` (single isomer, unassigned) [Compound 1.86], the EC50 is over 30 µM.

Turning to `CC(=O)N1CCN(C(=O)c2ccc(NC3CN(C4CCN(C(=O)C(O)(c5cccc(Cl)c5)C(F)(F)F)CC4)C3)cc2Cl)CC1` (stereo not shown) [Compound 1.134, 1-(4-(3-((4-(4-acetylpiperazine-1-carbonyl)-3-chlorophenyl)amino)azetidin-1-yl)piperidin-1-yl)-2-(3-chlorophenyl)-3,3,3-trifluoro-2-hydroxypropan-1-one], the EC50 was 0.86 µM.
